Measured values reported in PubChem BioAssay (NCI).
Several values for one entry are separate records, joined by “and”; a condition that tells them apart may be missing. Identical values can stand only once.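 Values below derive from 48-hour exposures of cells grown in 96-well plates, with endpoints linearly interpolated between the two concentrations bracketing the appropriate inhibition level. The concentration for 50% growth inhibition is given as GI50. TGI is the concentration that stops growth completely.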

What was measured:
Experiment in all cases: growth of human tumour cells (NCI), 48 h
SNB-19 CNS = tested on: SNB-19 CNS
SNB-75 CNS = tested on: SNB-75 CNS
LOX IMVI melanoma = tested on: LOX IMVI melanoma
NCI-H23 lung = tested on: NCI-H23 lung
EKVX NSCLC = tested on: EKVX NSCLC
CCRF-CEM leukemia = tested on: CCRF-CEM leukemia
SK-OV-3 ovarian = tested on: SK-OV-3 ovarian
MALME-3M melanoma = tested on: MALME-3M melanoma
UO-31 renal = tested on: UO-31 renal
SR leukemia = tested on: SR leukemia

Row | Compound | TGI (SNB-19 CNS) | TGI (SNB-75 CNS) | TGI (LOX IMVI melanoma) [µM] | TGI (NCI-H23 lung) | TGI (EKVX NSCLC) | TGI (CCRF-CEM leukemia) [µM] | TGI (SK-OV-3 ovarian) | GI50 (MALME-3M melanoma) [µM] | TGI (MALME-3M melanoma) [µM] | GI50 (SNB-19 CNS) [µM] | GI50 (SNB-75 CNS) [µM] | GI50 (LOX IMVI melanoma) [µM] | GI50 (NCI-H23 lung) | GI50 (EKVX NSCLC) [µM] | GI50 (CCRF-CEM leukemia) | GI50 (UO-31 renal) [µM] | TGI (UO-31 renal) | GI50 (SK-OV-3 ovarian) [µM] | GI50 (SR leukemia) [µM] | TGI (SR leukemia) [µM]
1 | O=C(O)CCC1CCc2cccc(OCC(=O)O)c2C1=O (stereo unspecified) | > 100 µM | > 100 µM | > 100 | > 100 µM | > 100 µM | > 100 | > 100 µM | – | – | – | – | – | – | – | – | – | – | – | – | –
2 | O=C1C(=C([O-])c2ccccc2)C(=O)c2ccccc21.O=C1C(=C([O-])c2ccccc2)C(=O)c2ccccc21.[Co+2] | > 100 µM | > 100 µM | > 100 | > 100 µM | > 100 µM | > 100 | > 100 µM | 40.1 | > 100 | > 100 | > 100 | 82.1 | > 100 µM | > 100 | 38.6 µM | > 100 | > 100 µM | > 100 | – | –
3 | O=C(O)c1cn(C2CC2)c2cc(N3CCN(C(=O)Nc4nc(-c5ccc(Br)cc5)cs4)CC3)c(F)cc2c1=O | > 100 µM | > 100 µM | > 100 | > 100 µM | – | > 100 | – | 0.853 | > 100 | 1.41 | 0.715 | 1.09 | 1.43 µM | – | 1.23 µM | 1.64 | > 100 µM | – | 0.454 | > 100
4 | O=C(Cc1ccccc1)NN1C(=O)C(Cl)C1c1cccc([N+](=O)[O-])c1 (stereo unspecified) | > 100 µM | – | – | > 92.2 µM | > 100 µM | 5.97 | > 100 µM | – | > 100 | – | – | – | – | – | – | – | > 100 µM | – | – | 22.1
5 | CCC1c2cc3n(c(=O)c2COC1O)Cc1c-3nc2ccccc2c1Cl (stereo unspecified) | > 100 µM | > 100 µM | > 100 | > 100 µM | > 100 µM | > 100 | > 100 µM | – | > 100 | – | – | – | – | – | – | – | > 100 µM | – | – | –
6 | NC(=O)CCc1ccccc1Oc1nccc(-c2c(-c3ccc(F)cc3)ncn2C2CCNCC2)n1 | > 25 µM | > 25 µM | > 25 | – | > 25 µM | – | > 25 µM | > 25 | > 25 | > 25 | > 25 | > 25 | – | > 25 | – | > 25 | > 25 µM | > 25 | – | –
7 | Cc1ccc(NC(=O)/C(=N\NC(N)=S)C(C#N)c2ccccc2C)cc1C (stereo unspecified) | > 100 µM | > 100 µM | – | > 100 µM | > 100 µM | > 100 | > 100 µM | – | > 100 | – | – | – | – | – | – | – | > 100 µM | – | – | > 100
8 | CC(C)OCc1cc(CN2CCN(c3cccc(Cl)c3)CC2)c(O)c2ncccc12 | 21.7 µM | 14.4 µM | 10.2 | 19 µM | – | 9.89 | 12.2 µM | 1.03 | 7.33 | 0.504 | 1.19 | 0.416 | 1.03 µM | – | 0.383 µM | 0.24 | 1.38 µM | 0.71 | 0.403 | 10.2
9 | N#CC(/C(=N/NC(N)=S)C(=O)Nc1cccc(Cl)c1)c1ccccc1 (stereo unspecified) | > 100 µM | > 100 µM | – | > 100 µM | > 100 µM | > 100 | > 100 µM | – | > 100 | – | – | – | – | – | – | – | > 100 µM | – | – | > 100
10 | C/C(=N/NC(=S)N1CC2CCC(CC2)C1)c1cnccn1 | 14.2 µM | 7.02 µM | 11.4 | 13.7 µM | 12.3 µM | – | 11.9 µM | – | 10.3 | – | – | – | – | – | – | – | 2.02 µM | – | – | –
11 | C=C1C(=O)OC2CC1C(OC(C)=O)C/C(C)=C/CC/C(C)=C\CCC2(C)O (stereo unspecified) | 40.1 µM and 32 µM | 29.7 µM and 24.3 µM | – | 22.4 µM and 4.44 µM | 16 µM and 14 µM | – | 61.7 µM and 46.6 µM | – | 15 | – | – | – | 7.77 µM and 1.84 µM | – | 0.469 µM and 2.36 µM | – | 18.3 µM and 12.3 µM | – | – | 4.85
12 | COc1cc2c3c(n(CCCN4CCCNCC4)c(=O)c2cc1OC)-c1cc2c(cc1C3=O)OCO2 | 9.62 µM | 7.66 µM | 0.886 | 2.57 µM | 15.5 µM | 8.06 | 15.5 µM | 2.47 | 11.9 | 1.26 | 0.754 | 0.165 | 0.346 µM | 7.6 | 0.0721 µM | 1.33 | 12.9 µM | 4 | – | –
13 | C=C(COC(C)=O)CC(/C=C(\C)CC/C=C(\C)CO)OC(C)=O (stereo unspecified) | > 100 µM | > 100 µM | > 100 | > 100 µM | > 100 µM | > 100 | > 100 µM | – | – | – | – | – | – | – | – | – | > 100 µM | – | – | –
14 | C#CCn1c(=O)c2cccnc2n(CC#C)c1=O | > 100 µM | > 100 µM | > 100 | > 100 µM | – | > 100 | > 100 µM | – | > 100 | – | – | – | – | – | – | – | – | – | – | > 100
15 | COc1ccccc1NC(=O)C(=O)Cc1cnc2ccccc2n1 | > 100 µM | > 100 µM | > 100 | > 100 µM | – | > 100 | > 100 µM | – | – | – | – | – | – | – | – | – | > 100 µM | – | – | > 100
16 | Brc1ccc(Nc2nc3ccccc3nc2Nc2ccc(Br)cc2)cc1 | 12.2 µM | 7.04 µM | 3.31 | 6.52 µM | – | 10.7 | 7.69 µM | 1.98 | 4.95 | 0.591 | 1.9 | 1.72 | 1.32 µM | – | 1.01 µM | 1.83 | 6.3 µM | 2.14 | 0.715 | 5.52
17 | O=C(O)c1ccc(C(=O)O)c(C(=O)O)c1.[NH-]C1CCCCC1[NH-].[Pt+2] | > 93.8 µM | 78.9 µM | 68.2 | 38.4 µM | 90.8 µM | 66.8 | > 97.3 µM | 1.67 | 22.8 | 11 | 18 | 3.45 | 4.87 µM | 29.1 | 0.858 µM and 4.49 µM | 4.22 | 26.5 µM | 40.9 | – | –
18 | C=C1C(=O)c2cc3c(cc2C(c2cc(OC)c(OC)c(OC)c2)[C@@H]1C(=O)O)OCO3 (stereo partly specified) | – | 61.1 µM | > 100 | > 100 µM | > 100 µM | > 100 | > 100 µM | – | > 100 | – | – | – | – | – | – | – | > 100 µM | – | – | –
19 | Cn1c2cc([N+](=O)[O-])ccc2c(=O)c2c(O)cc3c(c21)C=CC(C)(C)O3 | 73 µM | 25.7 µM | > 100 | > 100 µM | > 100 µM | > 100 | 87.8 µM | – | > 100 | – | – | – | – | – | – | – | 67.6 µM | – | – | –
